# Legend:
# [1] = Pharmacokinetic study of T1249 in hydrogel composition or aqueous solution, subcutaneous injection, blood plasma levels; type: in vivo, Sprague-Dawley rats; details: s.c.; for PTF / AUC(0-inf) / Cmax / Tmax / AUC(0-t) / half-life: approximately 1.25 mg/kg, rat plasma; for AUC(0-inf) / Cmax / Tmax / AUC(0-t) / half-life: Sprague-Dawley, rat, plasma, sc, 1.25 mg/kg; for AUC(0-t): read-out: AUC(0-12); for half-life: read-out: t1/2,terminal (converted)
# Protocol: (§1) Pharmacokinetic parameters were calculated from the data as follows: The terminal elimination phase half (t½, terminal) was calculated using the equation 0.693/k, where k equals the terminal elimination rate constant and is determined from a log/linear regression of at least three data points from the plasma concentration-time curve. Cmax was defined as the highest observed concentration between 0 and 12 hours postdose, and tmax is the collection time corresponding to Cmax. The area under the plasma concentration-time curve from 0 to 12 hours postdose (AUC(0-12) was calculated using the trapezoidal rule. AUC(0-∞) was calculated using the trapezoidal rule and extrapolated to infinity by dividing the last plasma concentration by the terminal elimination rate constant (k). PTF values (peak-trough fluctuations) were calculated using the equation (Cmax-Cmin)/Cav. Cmin was defined as the concentration of T20 at 12 hours postdose, and Cav was calculated using the equation AUC(0-12)/12.
# Carrier hydrogel compositions containing T1249 were prepared in both a hydrogel and aqueous compositions. A hydrogel composition was prepared by adding 12.5 mg of lyophilized T1249 to 1 mL of the F5 hydrogel formulation described above in Section 6. A pharmaceutical composition of T1249 in aqueous solution was also prepared by combining lyophilized T1249 (12.5 mg) to 2 mL of water for injection (USP). The contained 12.5 mg of T1249, 25 mg mannitol and sodium hydroxide/hydrochloric acid to adjust the pH to 6.5.
# The T1249 carrier hydrogel composition were administered to Sprague-Dawley rats according to the protocol described in Section 7.1, above, for T20. The rats were divided randomly into two groups (Groups I and II). The rats in Group I were each administered the above-described hydrogel compositions containing T1249. The rats in Group II were each administered the above-described composition of T1249 in aqueous buffer as a control. Blood plasma levels of T1249 were measured from samples collected from the animals immediately after (0 hours) and 1, 2, 4, 8, 12, 24, 36 and 48 hours post-dosing.
# Pharmacokinetic parameters were calculated from the data as described in Section 7.1, above.
# [2] = Pharmacokinetic study of T20 in hydrogel compositions or aqueous solution, single subcutaneous bolus injection, blood plasma levels; type: in vivo, Sprague-Dawley rats; details: for Tmax / half-life / AUC(0-inf) / Cmax / AUC(0-t): male, Sprague-Dawley, sc; for AUC(0-t): read-out: AUC(0-12)
# Protocol: Pharmacokinetic studies were performed on 16 cannulated male Sprague-Dawley rats having an average weight of 0.230 kg (StdDev=0.008 kg). Specifically, the rats were divided randomly into four groups (Groups I-IV). The rats in Group I were each administered T20 at a concentration of 50 mg/mL in a higher viscosity gel system (i.e., of the F2-50 pharmaceutical composition described in Section 6.1, supra. The rats in Group II were each administered T20 at a concentration of 25 mg/mL in a higher viscosity gel system (i.e., of the F2-25 pharmaceutical composition described in Section 6.1, supra). The rats in Group III were each administered T20 at a concentration of 25 mg/mL in a lower viscosity gel system (i.e., of the F5-25 pharmaceutical composition described in Section 6.1, supra). The rats in Group IV were administered T20 at a concentration of 25 mg/mL in an aqueous buffer (i.e., the WI-25 pharmaceutical composition described supra) as a control. The rats in all of the groups received the T20 via a single subcutaneous bolus injection of 25 μL of the formulation on the right side of the abdomen through a 30G½ Gauge needle. Each group received a dose level of approximately 5 mg/kg (Group I) or 2.5 mg/kg (Groups II-IV). More specifically, the dosages received by the animals in Groups I-IV were 6.71 mg/kg, 2.90 mg/kg, 3.27 mg/kg and 2.78 mg/kg, respectfully. These dosages were selected to approximate the dose levels, on a mg/cm^2 basis, to be used in humans.
# Blood plasma levels of T20 were measured from samples collected from the animals immediately after (0 hours) and 1, 2, 4, 8, 12, and 24 hours post-dosing.
# as §1
# [3] = Group I: 12.5 mg/mL T1249 in low viscosity hydrogel (F5)
# [4] = Group II: 12.5 mg/mL T1249 in aqueous buffer (control)
# [5] = T20 as a subcutaneous injection of a hydrogel
# [6] = 2.9 mg/kg, Group II: F2-25, 25 mg/mL T20 in high viscosity hydrogel, single s.c. bolus 25 μL, 2.90 mg/kg, rat plasma
# [7] = Group I: F2-50, 50 mg/mL T20 in high viscosity hydrogel, single s.c. bolus 25 μL, 6.71 mg/kg, rat plasma
# [8] = Group III: F5-25, 25 mg/mL T20 in lower viscosity hydrogel, single s.c. bolus 25 μL, 3.27 mg/kg, rat plasma
# [9] = Group IV: WI-25, 25 mg/mL T20 in aqueous buffer (control), single s.c. bolus 25 μL, 2.78 mg/kg, rat plasma
compound,measurement,setting,value
CC[C@H](C)[C@H](NC(=O)[C@H](CCC(N)=O)NC(=O)[C@H](C)NC(=O)[C@H](CCC(N)=O)NC(=O)[C@H](CCC(=O)O)NC(=O)[C@H](CC(C)C)NC(=O)[C@H](CC(C)C)NC(=O)[C@H](C)NC(=O)[C@@H](NC(=O)[C@@H](NC(=O)[C@H](CCCCN)NC(=O)[C@H](CCC(N)=O)NC(=O)[C@H](CCC(=O)O)NC(=O)[C@H](Cc1c[nH]c2ccccc12)NC(=O)[C@H](CCC(=O)O)NC(=O)[C@H](CCC(N)=O)NC(=O)[C@H](Cc1c[nH]c2ccccc12)NC(C)=O)[C@@H](C)CC)[C@@H](C)O)C(=O)N[C@@H](CCC(N)=O)C(=O)N[C@@H](CCC(N)=O)C(=O)N[C@@H](CCC(=O)O)C(=O)N[C@@H](CCCCN)C(=O)N[C@@H](CC(N)=O)C(=O)N[C@@H](CCC(=O)O)C(=O)N[C@@H](Cc1ccc(O)cc1)C(=O)N[C@@H](CCC(=O)O)C(=O)N[C@@H](CC(C)C)C(=O)N[C@@H](CCC(N)=O)C(=O)N[C@@H](CCCCN)C(=O)N[C@@H](CC(C)C)C(=O)N[C@@H](CC(=O)O)C(=O)N[C@@H](CCCCN)C(=O)N[C@@H](Cc1c[nH]c2ccccc12)C(=O)N[C@@H](C)C(=O)N[C@@H](CO)C(=O)N[C@@H](CC(C)C)C(=O)N[C@@H](Cc1c[nH]c2ccccc12)C(=O)N[C@@H](CCC(=O)O)C(=O)N[C@@H](Cc1c[nH]c2ccccc12)C(=O)N[C@@H](Cc1ccccc1)C(N)=O [T1249],PTF,[1]; [3],1.62 ± 0.086
same,PTF,[1]; [4],4.44 ± 0.680
same,AUC(0-inf),[1]; [3],29100 ± 5200 ng·h/mL
same,Cmax,[1]; [3],1900 ± 334 ng/mL
same,Tmax,[1]; [3],8 h
same,AUC(0-t),[1]; [3],28200 ± 5640 ng·h/mL
same,half-life,[1]; [3],3.37 ± 0.68 h
same,AUC(0-inf),[1]; [4],18400 ± 4070 ng·h/mL
same,Cmax,[1]; [4],3320 ± 215 ng/mL
same,Tmax,[1]; [4],2 h
same,AUC(0-t),[1]; [4],18300 ± 4060 ng·h/mL
same,half-life,[1]; [4],2.28 ± 0.122 h
same,"pharmacokinetic properties, hydrogel versus aqueous solution",[1]; T1249 administered in a hydrogel composition,improved pharmacokinetic properties
enfuvirtide,T20 plasma concentration levels within 12 hours,"[2]; T20 administered by a hydrogel, s.c.",remained elevated
same,T20 plasma concentration levels within 12 hours,"[2]; T20 administered in an aqueous solution, s.c.",already cleared the blood stream
same,"change of bioavailability, hydrogel versus aqueous solution",[2]; [5],approximately doubling
same,"change of half-life, hydrogel versus aqueous solution",[2]; [5],approximately doubling
same,"dose proportionality of pharmacokinetics (AUC, t½)","[2]; high viscosity hydrogel formulation of T20, s.c., both dose levels",linearity of pharmacokinetics within the dose range tested
same,Tmax,"[2]; rat, plasma, 2.78 mg/kg, Group IV: WI-25, 25 mg/mL T20 in aqueous buffer (control), single s.c. bolus 25 μL, 2.78 mg/kg, rat plasma",~2 h
same,Tmax,"[2]; rat, plasma, 2.9 mg/kg, Group II: F2-25, 25 mg/mL T20 in high viscosity hydrogel, single s.c. bolus 25 μL, 2.90 mg/kg, rat plasma",4 h
same,Tmax,"[2]; rat, plasma, 3.27 mg/kg, Group III: F5-25, 25 mg/mL T20 in lower viscosity hydrogel, single s.c. bolus 25 μL, 3.27 mg/kg, rat plasma",4 h
same,half-life,"[2]; rat, plasma, T20 administered in a hydrogel, s.c., depending on the exact hydrogel formulation and T20 dosage, read-out: group mean half-life values",4.27 to 4.75 h
same,AUC(0-inf),[2]; [6],24800 ± 4860 ng·h/mL
same,Cmax,[2]; [6],2830 ± 316 ng/mL
same,AUC(0-t),[2]; [6],19600 ± 3450 ng·h/mL
same,half-life,"[2]; 2.9 mg/kg, Group II: F2-25, 25 mg/mL T20 in high viscosity hydrogel, single s.c. bolus 25 μL, 2.90 mg/kg, rat plasma, read-out: t1/2,terminal (converted)",4.27 ± 0.159 h
same,AUC(0-inf),[2]; [7],55400 ± 9150 ng·h/mL
same,Cmax,[2]; [7],5970 ± 499 ng/mL
same,AUC(0-t),[2]; [7],43400 ± 4480 ng·h/mL
same,half-life,"[2]; Group I: F2-50, 50 mg/mL T20 in high viscosity hydrogel, single s.c. bolus 25 μL, 6.71 mg/kg, rat plasma, read-out: t1/2,terminal (converted)",4.75 ± 0.285 h
same,AUC(0-inf),[2]; [8],32800 ± 9710 ng·h/mL
same,Cmax,[2]; [8],3780 ± 751 ng/mL
same,AUC(0-t),[2]; [8],25700 ± 6140 ng·h/mL
same,half-life,"[2]; Group III: F5-25, 25 mg/mL T20 in lower viscosity hydrogel, single s.c. bolus 25 μL, 3.27 mg/kg, rat plasma, read-out: t1/2,terminal (converted)",4.61 ± 0.618 h
same,AUC(0-inf),[2]; [9],6080 ± 1610 ng·h/mL
same,Cmax,[2]; [9],1550 ± 640 ng/mL
same,AUC(0-t),[2]; [9],5870 ± 1690 ng·h/mL
same,half-life,"[2]; Group IV: WI-25, 25 mg/mL T20 in aqueous buffer (control), single s.c. bolus 25 μL, 2.78 mg/kg, rat plasma, read-out: t1/2,terminal (converted)",2.19 h
